What was measured:
[1] = test system: spinal nerve ligation model rats (neuropathic pain model rats); test: Analgesic effect on allodynia in spinal nerve ligation model rats (von Frey, 50% response threshold); type: in vivo, rat; settings: measured 3 hours after administration, 8 days after ligation, compared to negative control group
Experimental: Analgesic effects of the crystal of compound (I) or the pharmacologically acceptable salt thereof upon neuropathic pain were evaluated using spinal nerve ligation model rats (Kim and Chung, Pain, 1992, vol. 50, p. 355). Form A crystal of compound (I) was used as a crystal of compound (I) or the pharmacologically acceptable salt thereof for evaluation.
The above model rats were prepared as follows. In experiments, 6-to 7-week-old SD male rats were used for 5 to 7 cases per group, and the lumbar skin and muscle of each rat were dissected to expose the L5 and L6 […] under inhalation anesthesia with isoflurane. After ligating the L5 and L6 spinal nerves with silk suture, the wound of each rat was sutured. Thus, a nerve ligation group was prepared. The group in which the nerve was exposed but not ligated was determined to be a sham surgery group.
Allodynia observed in spinal nerve ligation model rats was measured using a von Frey filaments according to a method described in a known publication (Chaplan et al., J. Neurosci. Methods, 1994, vol. 53, p. 55) and a 50% response threshold (g) was determined. Eight days after the ligation surgery, allodynia of the nerve ligation group was measured before oral administration of Form A crystal of compound (I). Rats with a 50% response threshold (average value of the right hind paw and the left hind paw) of 2 g to less than 6 g were considered to have developed allodynia. The rats were divided as neuropathic pain model rats into groups such that there was no significant difference in the 50% response threshold between groups. Allodynia was measured 3 hours after the oral administration of Form A crystal of compound (I), and the analgesic effect was evaluated. Pregabalin was used as a positive control.
Form A crystal of compound (I) was dissolved in water for injection (distilled water) to result in concentrations of 5, 10, and 20 mg/mL, and orally administered in a dose volume of 1 mL per kg body weight. Pregabalin was dissolved in water for injection (distilled water) to result in a concentration of 10 mg/mL and orally administered in a dose volume of 1 mL per kg of body weight. Water for injection (distilled water) was orally administered to the sham surgery group. A group in which water for injection (distilled water) was orally administered to rats in the nerve ligation group was defined as a negative control group.
The horizontal axis represents the solution to be administered in each group, namely, the nerve ligation group or sham surgery group, and the vertical axis represents the 50% response threshold (g) (mean±standard error, n=5 to 7). […]

[2] = Evaluation of hygroscopicity (equilibrium moisture measurement); type: physicochemical; settings: for Weight increase: humidification with an increase in relative humidity from 5% to 65%; for Weight increase / Change in appearance: 30° C.; for Change in appearance: humidification
Experimental: Equilibrium moisture measurement was performed on Form A crystal and the amorphous matter of compound (I) under the following conditions using a fully automated symmetric vapor sorption analyzer (TA Instruments Inc.; VTI-SA+). […] The change in appearance was also observed.

[3] = Evaluation of storage stability of Form A crystal, 6 months (HPLC purity, powder X-ray diffraction, TG-DTA); type: physicochemical
[4] = listed as Form A crystal of compound (I)
[5] = Storage test 1: 25° C., relative humidity 60%, open state
[6] = Storage test 2: 40° C., relative humidity 75%, airtight state
[7] = Storage test 3: 60° C., airtight state
[8] = any of storage tests 1 to 3, 6 months

## CN(C)C1CCN(C(=O)C[C@H](O)c2nccn2C)CC1 [Form A crystal, (S)-1-(4-(dimethylamino)piperidin-1-yl)-3-hydroxy-3-(1-methyl-1H-imidazol-2-yl)propan-1-one]
[1]; oral 5 mg/kg
  improvement of allodynia (50% response threshold): significant improvement
[1]; oral 10 mg/kg
  improvement of allodynia (50% response threshold): significant improvement
[1]; oral 20 mg/kg
  improvement of allodynia (50% response threshold): significant improvement
[2]
  Weight increase: 0.1%
  Change in appearance: Maintenance of white powder
[2]; [4]
  Weight increase: did not experience an increase in weight
  Change in appearance: did not deliquesce
[2]; powder X-ray diffraction after humidification
  change in the crystal form after the hygroscopicity evaluation test: did not experience a change in the crystal form
[3]; [5]
  Chemical purity, After 6 months: 99.8%
  Crystal form after 6 months: Form A
  Decomposition product increased by not less than 0.15% after 6 months: None
  Optical purity, After 6 months: 99.0 % ee
[3]; [6]
  Chemical purity, After 6 months: 99.8%
  Crystal form after 6 months: Form A
  Decomposition product increased by not less than 0.15% after 6 months: None
  Optical purity, After 6 months: 99.0 % ee
[3]; [7]
  Chemical purity, After 6 months: 99.8%
  Crystal form after 6 months: Form A
  Decomposition product increased by not less than 0.15% after 6 months: None
  Optical purity, After 6 months: 99.0 % ee
[3]; [8]
  change in the crystal form on storage: no change was observed
  change of purity on storage: did not change
[3]; before storage
  Chemical purity, Initial value: 99.8%
  Optical purity, Initial value: 98.8 % ee

Source: patent publication US11834431B2, “Crystals of cyclic amine derivative and pharmaceutical use thereof” (Toray Industries, Inc., priority 2016, dated 2023)
